Results published in patent US7507727B2, “Substituted quinobenzoxazine analogs and methods of using thereof” (Cylene Pharmaceuticals, Inc., priority 2003, dated 2009).

Each compound was assayed against c-Myc template DNA (c-myc quadruplex) (assay: Quadruplex binding / stop assay (Taq polymerase arrest, capillary electrophoresis)). Settings: read-out: S DATA; Table 1D, stop assay data.

IC50 [µM] | Structure (SMILES)
5.2 | CN1CCCC1CCNC(=O)c1cn2c3c(c(SCCc4cnccn4)c(F)cc3c1=O)Oc1c-2ccc2ccccc12 (centres unmarked) [compound 1780]
> 15 | CN1CCN(CCCNc2c(F)cc3c(=O)c(C(=O)NCCC4CCCN4C)cn4c3c2Oc2ccccc2-4)CC1 (centres unmarked) [compound 1576]
> 15 | CN(C)CCCCNC(=O)c1cn2c3c(c(NCCCN4CCOCC4)ccc3c1=O)Oc1cc3ccccc3cc1-2 [compound 1532]
9.7 | CC(CNc1c(F)cc2c(=O)c(C(=O)NCCC3CCCN3C)cn3c2c1Oc1cc2ccccc2cc1-3)Oc1ccccn1 (centres unmarked) [compound 1750]
> 15 | O=C(NCCN1CCCC1)c1cn2c3c(c(SCCc4cnccn4)c(F)cc3c1=O)Oc1cc(Cl)ccc1-2 [compound 1784]
> 15 | CN1CCCC1CCNC(=O)c1cn2c3c(c(NC(CO)CC4CCCCC4)c(F)cc3c1=O)Oc1cc3ccccc3cc1-2 (centres unmarked) [compound 1748]
1.75 | COc1ccc2[nH]cc(CCNC(=O)c3cn4c5c(c(N6CCC(N)C6)c(F)cc5c3=O)Oc3cc5ccccc5cc3-4)c2c1 (centres unmarked) [compound 1699]
4.8 | CN1CCCC1CCNC(=O)c1cn2c3c(c(N4CCC(c5cnccn5)C4)c(F)cc3c1=O)Oc1ccc(Cl)cc1-2 (centres unmarked) [compound 1764]
> 15 | CC(C)OCCCNC(=O)c1cn2c3c(c(N4CCC(N)C4)c(F)cc3c1=O)Oc1cc3ccccc3cc1-2 (centres unmarked) [compound 1710]
> 15 | CC(C)(C)OC(=O)NC1CCN(c2ccc3c(=O)c(C(=O)NCCCN4CCOCC4)cn4c3c2Oc2cc3ccccc3cc2-4)C1 (centres unmarked) [compound 1536]
9.4 | O=C(NCCN1CCCC1)c1cn2c3c(c(N4CCN(C(=O)N5CCC[C@H]5C(=O)C(F)(F)F)CC4)c(F)cc3c1=O)Oc1cc(Cl)ccc1-2 [compound 1824]
> 15 | O=C(c1cn2c3c(c(NCCN4CCOCC4)c(F)cc3c1=O)Oc1ccccc1-2)N1CCC(N2CCCC2)CC1 [compound 1613]

Same assay, conditions: read-out: Stop Data c-Myc μM; concentration at which 50% of the DNA was arrested (arrested:full-length 1:1)

IC50 [µM] | Structure (SMILES)
1.75 | CN1CCCC1CCNC(=O)c1cn2c3c(c(NCCCNC(=O)OC(C)(C)C)c(F)cc3c1=O)Oc1cc3ccccc3cc1-2 (centres unmarked) [compound 297]
1 | O=C(O)c1cn2c3cc4c(cc3oc3c(F)c(F)cc(c1=O)c32)c(=O)c1ccccc14 [compound 320]
1.75 | NC1CCN(c2c(F)cc3c(=O)c(C(=O)N4CCCCC4CN4CCCC4)cn4c3c2Oc2cc3ccccc3cc2-4)C1 (centres unmarked) [compound 249]
1.75 | Nc1c(F)c(N2CCC(N)C2)c2c3c1c(=O)c(C(=O)N1CCOCC1)cn3-c1cc3ccccc3cc1O2 (centres unmarked) [compound 239]
2.5 | CN1CCCC1CCNC(=O)c1cn2c3c(c(NCCN4CCCC4)c(F)cc3c1=O)Oc1cc3ccccc3cc1-2 (centres unmarked) [compound 73]
1.75 | CC(CNc1c(F)cc2c(=O)c(C(=O)NCCC3CCCN3C)cn3c2c1Oc1cc2ccccc2cc1-3)c1ccccc1 (centres unmarked) [compound 285]
0.75 | CN(C)CCCCNc1c(F)cc2c(=O)c(C(=O)O)cn3c4cc5oc6cc(N)ccc6[nH]c5cc4oc1c23 [compound 21]
1 | O=C(CCN1CCCCC1)N[C@@H]1CCN(c2c(F)cc3c(=O)c(C(=O)NCCN4CCOCC4)cn4c3c2Oc2cc3c(cc2-4)oc2ccccc23)C1 [compound 319]
1.75 | CC1CCCC(C)N1CCCNc1c(F)cc2c(=O)c(C(=O)NCCC3CCCN3C)cn3c2c1Oc1cc2ccccc2cc1-3 (centres unmarked) [compound 296]
1.75 | CN(C)CCCCNC(=O)c1cn2c3c(c(NCCN4CCCC4)c(F)cc3c1=O)Oc1cc3c(cc1-2)oc1ccccc13 [compound 161]
0.75 | CN(C)CCCCNc1c(F)cc2c(=O)c(C(=O)O)cn3c4cc5oc6cc([N+](=O)[O-])ccc6[nH]c5cc4oc1c23 [compound 19]
5 | CN1CCCC1CCNC(=O)c1cn2c3c(c(NCC4CCCO4)c(F)cc3c1=O)Oc1cc3ccccc3cc1-2 (centres unmarked) [compound 1471]
2.5 | CN(C)CCCCNc1c(F)cc2c(=O)c(C(=O)Nc3ccc(N(C)C)cc3)cn3c2c1Oc1c-3ccc2ccccc12 [compound 76]
1.75 | COc1ccc2c(CCNc3c(F)cc4c(=O)c(C(=O)NCCC5CCCN5C)cn5c4c3Oc3cc4ccccc4cc3-5)c[nH]c2c1 (centres unmarked) [compound 288]
